Source: US20210369853A1, “TARGETED PROTEASE DEGRADATION PLATFORM” (EUBULUS BIOTHERAPEUTICS INC., priority 2018, published 2021)
Read-outs that look alike come from different tables or passages of the source.

Experiments:
Format in all cases: cell-based
[1] = tested on: Human Colon Cancer HCT-116; experiment: Cell proliferation experiment (Alarm blue, 72 h, EC50); conditions: HCT116 cells
Procedure, shortened: (§1)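 EC50 values derive from Alamar blue fluorescence measured after cells in 96-well plates were incubated 72 h with compound diluted 5-fold per step in complete medium.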

[2] = tested on: Human Monocytic Leukemia MV4-11; experiment: as above; conditions: Homo sapiens
Procedure, shortened: as §1

[3] = tested on: Human Small Cell Lung Cancer NCI-H82; experiment: as above; conditions: Homo sapiens, NCI-H82; NCIH82 cells
Procedure, shortened: as §1

[4] = tested on: Human Breast Cancer MDA-MB-231; experiment: as above; conditions: MDA-MB-231 cells
Procedure, shortened: as §1

[5] = tested on: Human Colon Cancer HT-29; experiment: as above; conditions: HT-29 cells
Procedure, shortened: as §1

[6] = tested on: Human cervical adenocarcinoma cells Hela; experiment: as above
Procedure, shortened: as §1

[7] = tested on: Human Glioma Cells U-87 MG; experiment: as above; conditions: Homo sapiens; U-87MG cells
Procedure, shortened: as §1

[8] = tested on: Human Acute Myelomonocytic Leukemia HL-60; experiment: as above; conditions: HL-60 cells
Procedure, shortened: as §1

[9] = tested on: Human Monocytic Leukemia THP-1; experiment: as above; conditions: THP-1 cells
Procedure, shortened: as §1

[10] = tested on: Human Acute Lymphoblastic Leukemia Cells MOLT-4; experiment: as above; conditions: MOL4-4 cells
Procedure, shortened: as §1

[11] = molecular target: T1, BRD4 (Homo sapiens, UniProt O60885); experiment: Western blot, protein degradation (DC50)
T1 construct: endogenous in cells
Procedure, shortened: (§2)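 Protein loss read by ECL Western blot after compound treatment of cells; RIPA lysates run on 4%-12% SDS-PAGE, transferred to PVDF, primary antibody overnight at 4° C. Degradation derived from quantified band intensities.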

[12] = molecular target: T2, PLK1 (Homo sapiens, UniProt P53350); experiment: Western blot, protein degradation (DC50)
T2 construct: endogenous in cells
T2 sequence (P53350 whole entry): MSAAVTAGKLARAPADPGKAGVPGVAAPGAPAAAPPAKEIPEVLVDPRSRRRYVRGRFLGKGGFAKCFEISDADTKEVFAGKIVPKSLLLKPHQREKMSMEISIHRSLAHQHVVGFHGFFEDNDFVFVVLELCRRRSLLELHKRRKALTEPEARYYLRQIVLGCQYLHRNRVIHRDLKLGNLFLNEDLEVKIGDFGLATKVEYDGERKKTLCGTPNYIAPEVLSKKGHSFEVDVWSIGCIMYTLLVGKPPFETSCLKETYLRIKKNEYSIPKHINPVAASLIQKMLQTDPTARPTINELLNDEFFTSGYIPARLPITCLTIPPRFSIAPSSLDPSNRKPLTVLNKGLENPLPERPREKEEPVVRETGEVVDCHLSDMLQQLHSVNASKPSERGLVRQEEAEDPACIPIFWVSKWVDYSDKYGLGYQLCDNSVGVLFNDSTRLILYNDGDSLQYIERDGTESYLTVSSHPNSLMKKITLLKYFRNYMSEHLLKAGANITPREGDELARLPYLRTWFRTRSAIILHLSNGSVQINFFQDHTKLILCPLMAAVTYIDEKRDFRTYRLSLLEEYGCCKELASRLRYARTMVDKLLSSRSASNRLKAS
Procedure, shortened: as §2

[13] = tested on: Daudi; experiment: Cell proliferation experiment (EC50), Daudi; conditions: Homo sapiens; Daudi cells

EC50 [3] [nM]	EC50 ([5]; Homo sapiens) [nM]	EC50 [7] [nM]	EC50 [8] [nM]	EC50 ([2]; MV4-11, MV4;11 cells) [nM]	EC50 [13] [nM]	SMILES	also measured
–	–	–	> 1000	100 to 1000	–	O=C1CCC(N2Cc3c(NC(=O)CNCCOCCOCCOCCNC(=O)c4ccc(Nc5ncc6c(n5)-c5ccc(Cl)cc5C(c5c(F)cccc5F)=NC6)cc4)cccc3C2=O)C(=O)N1 (centres unmarked) [UB-180727]	–
–	–	–	> 1000	100 to 1000	–	O=C1CCC(N2Cc3c(NC(=O)CNCCOCCOCCOCCOCCNC(=O)c4ccc(Nc5ncc6c(n5)-c5ccc(Cl)cc5C(c5c(F)cccc5F)=NC6)cc4)cccc3C2=O)C(=O)N1 (centres unmarked) [UB-180801]	–
–	–	–	> 1000	100 to 1000	–	O=C1CCC(N2Cc3c(NC(=O)CNCCOCCOCCOCCOCCNC(=O)[C@]4(Cc5cccc(Nc6nccs6)n5)CC[C@@H](Oc5cccc(Cl)c5F)CC4)cccc3C2=O)C(=O)N1 (some centres unmarked) [UB-180802]	EC50 ([1]; Homo sapiens, HCT-116): 100 to 1000 nM; DC50 ([12]; 6 h, read-out: PLK1 DC50 (6 h)): < 10 nM
–	–	–	–	–	–	CC[C@@H]1C(=O)N(C)c2cnc(Nc3ccc(C(=O)NC4CCN(CCOCCN(CC(=O)Nc5cccc6c5CN(C5CCC(=O)NC5=O)C6=O)C(=O)OC(C)C(C)SSC[C@@H](NC(=O)[C@@H](CC(=O)O)NC(=O)[C@@H](CC(=O)O)NC(=O)[C@@H](CCCNC(=N)N)NC(=O)[C@@H](CC(=O)O)NC(=O)CC[C@H](NC(=O)c5ccc(NCc6cnc7nc(N)[nH]c(=O)c7n6)cc5)C(=O)O)C(=O)O)CC4)cc3OC)nc2N1C1CCCC1 (some centres unmarked) [UB-180838]	EC50 [1]: 100 to 1000 nM; EC50 [4]: 100 to 1000 nM; EC50 [5]: 100 to 1000 nM; EC50 [6]: 100 to 1000 nM
–	–	–	–	–	–	CC(OC(=O)N(CCOCCOCCOCCNC(=O)[C@]1(Cc2cccc(Nc3nccs3)n2)CC[C@@H](Oc2cccc(Cl)c2F)CC1)CC(=O)Nc1cccc2c1CN(C1CCC(=O)NC1=O)C2=O)C(C)SSC[C@H](NC(=O)[C@@H](CC(=O)O)NC(=O)[C@@H](CC(=O)O)NC(=O)[C@@H](CCCNC(=N)N)NC(=O)[C@@H](CC(=O)O)NC(=O)CC[C@H](NC(=O)c1ccc(NCc2cnc3nc(N)[nH]c(=O)c3n2)cc1)C(=O)O)C(=O)O (some centres unmarked) [UB-180839]	EC50 [1]: 100 to 1000 nM; EC50 [4]: 100 to 1000 nM; EC50 [5]: 100 to 1000 nM; EC50 [6]: 100 to 1000 nM
100 to 1000	100 to 1000	100 to 1000	–	< 10	100 to 1000	CC[C@@H]1C(=O)N(C)c2cnc(Nc3ccc(C(=O)NCCOCCOCCNCC#Cc4cccc5c4CN(C4CCC(=O)NC4=O)C5=O)cc3OC)nc2N1C1CCCC1 (some centres unmarked) [UB-180845]	DC50 ([11]; 6 h, read-out: BRD4 DC50 (6 h)): < 10 nM
100 to 1000	100 to 1000	100 to 1000	–	100 to 1000	100 to 1000	CC[C@@H]1C(=O)N(C)c2cnc(Nc3ccc(C(=O)NCCOCCOCCOCCNCCCc4cccc5c4CN(C4CCC(=O)NC4=O)C5=O)cc3OC)nc2N1C1CCCC1 (some centres unmarked) [UB-180847]	–
100 to 1000	100 to 1000	100 to 1000	–	< 10	100 to 1000	CC[C@@H]1C(=O)N(C)c2cnc(Nc3ccc(C(=O)NCc4cn(CCN(C)CCC(=O)Nc5cccc6c5CN(C5CCC(=O)NC5=O)C6=O)nn4)cc3OC)nc2N1C1CCCC1 (some centres unmarked) [UB-180848]	–
100 to 1000	100 to 1000	100 to 1000	–	100 to 1000	100 to 1000	CC[C@@H]1C(=O)N(C)c2cnc(Nc3ccc(C(=O)NC4CCN(CCOCCN(CCO)CC(=O)Nc5cccc6c5CN(C5CCC(=O)NC5=O)C6=O)CC4)cc3OC)nc2N1C1CCCC1 (some centres unmarked) [UB-180849]	–
100 to 1000	100 to 1000	100 to 1000	–	100 to 1000	100 to 1000	CC[C@@H]1C(=O)N(C)c2cnc(Nc3ccc(C(=O)NCCCC[C@@H](N)C(=O)Nc4cccc5c4CN(C4CCC(=O)NC4=O)C5=O)cc3OC)nc2N1C1CCCC1 (some centres unmarked) [UB-180855]	–
100 to 1000	100 to 1000	100 to 1000	–	100 to 1000	100 to 1000	CC[C@@H]1C(=O)N(C)c2cnc(Nc3ccc(C(=O)NCCC[C@@H](N)C(=O)Nc4cccc5c4CN(C4CCC(=O)NC4=O)C5=O)cc3OC)nc2N1C1CCCC1 (some centres unmarked) [UB-180856]	–

SMILES	EC50 [3] [nM]	EC50 ([5]; Homo sapiens) [nM]	EC50 [7] [nM]	EC50 [8] [nM]	EC50 ([2]; MV4-11, MV4;11 cells) [nM]	EC50 [13] [nM]	also measured
CC[C@@H]1C(=O)N(C)c2cnc(Nc3ccc(C(=O)NCc4cn(CCNCCOCC(=O)Nc5cccc6c5CN(C5CCC(=O)NC5=O)C6=O)nn4)cc3OC)nc2N1Cc1ccc(Cl)s1 (some centres unmarked) [UB-180720]	100 to 1000	100 to 1000	100 to 1000	100 to 1000	–	–	EC50 ([1]; Homo sapiens, HCT-116): 100 to 1000 nM; EC50 ([2]; MV4;11 cells): < 10 nM; EC50 ([4]; Homo sapiens): 100 to 1000 nM; EC50 ([6]; Homo sapiens): 100 to 1000 nM; EC50 [9]: 100 to 1000 nM; EC50 [10]: 100 to 1000 nM; DC50 ([11]; 24 h, read-out: BRD4 DC50 (nM) (24 h)): < 10 nM; DC50 ([12]; 24 h, read-out: PLK1 DC50 (nM) (24 h)): < 10 nM
